# From the PolyMetriX glass transition set
# ± gives the standard deviation of the reports.
row,Compound,glass transition temperature
1,*CC(*)C(=O)n1c2ccccc2c2ccccc21 (repeat unit),50.10 °C
2,*c1ccc(OCCCCCCCCCCCOC(=O)c2cccc(C(=O)OCCCCCCCCCCCOc3cccc(-c4nnc(*)s4)c3)c2)cc1 (repeat unit),39.00 °C
3,*Oc1ccc2c(c1)C(C)(c1ccc(OC(*)=O)cc1)CC2(C)C (repeat unit),201.70 °C
4,*CC(*)CC(C)C (repeat unit),35.20 °C
5,*CCCCCCCC(=O)N* (repeat unit),37.00 °C
6,*Oc1ccc(Oc2ccc(Nc3ccc(S(=O)(=O)c4ccc(Nc5ccc(*)cc5)cc4)cc3)cc2)cc1 (repeat unit),144.60 °C
7,*CCNC(=O)c1ccccc1O* (repeat unit),84.00 °C
8,*c1cccc(-n2c(=O)c3cc4c(=O)n(*)c(=O)c4cc3c2=O)n1 (repeat unit),183.50 °C
9,*c1cccc(-c2nc3cc(Oc4ccc5nc(-c6ccccc6)c(*)nc5c4)ccc3nc2-c2ccccc2)c1 (repeat unit),270.00 °C
10,*c1nnc(-c2ccc(Oc3ccc(/C=C/c4ccc(Oc5ccc(*)c6ccccc56)cc4)c4ccccc34)c3ccccc23)o1 (repeat unit),241.00 °C
11,*C(=O)c1ccc2c(c1)C(=O)N(c1cccc(C(=O)c3ccc(Cc4ccc(C(=O)c5cccc(N6C(=O)c7ccc(*)cc7C6=O)c5)cc4)cc3)c1)C2=O (repeat unit),260.50 °C
12,*O[Si](C)(CCC(F)(F)F)CCC(F)(F)CC[Si](*)(C)CCC(F)(F)F (repeat unit),-38.00 °C
13,*c1ccc2c(c1)C(=O)N(c1ccc(Oc3ccc(S(=O)(=O)c4ccc(Oc5ccc(N6C(=O)c7ccc(C(*)(C(F)(F)F)C(F)(F)F)cc7C6=O)cc5)cc4)cc3)cc1)C2=O (repeat unit),276.50 °C
14,*Oc1ccc(C2(c3ccc(OC(=O)c4ccc(C(*)=O)cc4)cc3)c3ccccc3-c3ccccc32)cc1 (repeat unit),285.00 °C
15,*c1cccc(-c2nc3cc4nc(*)c(-c5ccccc5)nc4cc3nc2-c2ccccc2)c1 (repeat unit),365.00 °C
16,*CC(C)/C=C(/*)C (repeat unit),2.30 °C
17,*CC(*)(C)C(=O)OCCCCCCOc1ccc(OC(=O)c2ccc(OCCCCCCCC)cc2)cc1 (repeat unit),-1.00 °C
18,*CC(*)(C)C(=O)OCCC[Si](O[Si](C)(C)C)(O[Si](C)(C)C)O[Si](C)(C)C (repeat unit),72.4 °C
19,*OC(C)COC(=O)c1ccc(C(*)=O)cc1 (repeat unit),98.00 °C
20,*c1ccc(Oc2cccc(N3C(=O)c4ccc(Oc5ccc6cc(Oc7ccc8c(c7)C(=O)N(*)C8=O)ccc6c5)cc4C3=O)c2)cc1 (repeat unit),225.00 °C
21,*Oc1ccc(CC(NC(=O)CCc2ccc(OC(=O)COCCOCC(*)=O)cc2)C(=O)OCCCCCCCC)cc1 (repeat unit),16.00 °C
22,*CCCCCCCOC(=O)Nc1ccc(Cc2ccc(NC(=O)O*)cc2)cc1 (repeat unit),84.00 °C
23,*c1ccc(Oc2ccc(C3(c4ccc(Oc5ccc(N6C(=O)c7ccc(Oc8ccc(C9(c%10ccc(Oc%11ccc%12c(c%11)C(=O)N(*)C%12=O)cc%10)CCC(c%10ccccc%10)CC9)cc8)cc7C6=O)cc5)cc4)CC4CCC3C4)cc2)cc1 (repeat unit),245.00 °C
24,*CC(*)OC(=O)c1ccc([Si](C)(C)C)cc1 (repeat unit),130.50 °C

row,Compound,glass transition temperature
1,*Oc1ccc(S(=O)c2ccc(Oc3ccc(/C=N/N=C/c4ccc(*)cc4)cc3)cc2)cc1 (repeat unit),151.00 °C
2,*Oc1ccc(C2(c3ccc(OC(=O)c4ccc(C(*)=O)cc4)cc3)CC3CC2C2CCCC32)cc1 (repeat unit),322.00 °C
3,*C/C=C/COC(=O)C(Cc1ccccc1)NC(=O)/C=C/C(=O)NC(Cc1ccccc1)C(=O)O* (repeat unit),109.00 °C
4,*c1ccc(-c2cc(C(C)(C)C)c(Oc3ccc(N4C(=O)c5ccc(-c6ccc7c(c6)C(=O)N(*)C7=O)cc5C4=O)cc3C(F)(F)F)c(C(C)(C)C)c2)cc1 (repeat unit),389.00 °C
5,*CC(*)(C)C(=O)OCCCCOc1ccc2cc(C(=O)Oc3ccccc3)ccc2c1 (repeat unit),88.00 °C
6,*C(=O)Nc1ccc(Cc2ccc(NC(=O)c3ccc4c(c3)C(=O)N(c3c(C)cc(-c5cc(C)c(N6C(=O)c7ccc(*)cc7C6=O)c(C)c5)cc3C)C4=O)c(C)c2)cc1C (repeat unit),329.00 °C
7,*CC(*)c1cc(-c2ccc(C(=O)OC(C)CC)cc2)ccc1-c1ccc(C(=O)OC(C)CC)cc1 (repeat unit),212.50 °C
8,*CCN(CCOC(=O)CCC#CC#CCCC(=O)O*)c1ccc(/N=N/c2c(C)cc(/N=N/c3ccc(C#N)cc3)cc2C)cc1 (repeat unit),63.00 °C
9,*NNC(=O)c1ccccc1C(=O)NCCCCCCNC(=O)c1ccccc1C(*)=O (repeat unit),224.50 °C
10,*CC(*)c1ccc(C(=O)OCC)cc1 (repeat unit),94.00 °C
11,*CC(F)(F)C(F)(F)C(F)(F)COC(=O)c1cccc(C(=O)O*)c1OCCCCC (repeat unit),17.00 °C
12,*Oc1ccc(C(C)(C)c2ccc(OC(=O)c3ccc([Si](c4ccccc4)(c4ccccc4)c4ccc(C(*)=O)cc4)cc3)cc2)cc1 (repeat unit),295.00 °C
13,*c1ccc(Oc2ccc(-n3nccc3-c3ccc(-c4ccnn4*)cc3)cc2)cc1 (repeat unit),243.00 °C
14,*CC/C=C(/*)C (repeat unit) [Polyisoprene (cis)],-67.00 ± 7 °C
15,*[Si](*)(CCCC)CCCC (repeat unit),-40.50 °C
16,*c1ccc(Oc2ccc(Oc3ccc(NC(=O)c4ccc(Oc5ccc6c(c5)C(=O)N(*)C6=O)cc4)cc3)cc2)cc1 (repeat unit),242.00 °C
17,*/C(Cl)=C(/*)CCCCCC (repeat unit),150.00 °C
18,*CCCCCCc1nc2cc(NC(=O)CCCCCCCCC(=O)Nc3ccc4oc(*)nc4c3)ccc2o1 (repeat unit),86.00 °C
19,*c1ccc2c(c1)C(=O)N(c1ccc(Oc3ccc(N4C(=O)c5ccc(C(*)O)cc5C4=O)cc3)cc1)C2=O (repeat unit),250.00 °C
20,*c1ccc(Oc2ccc(-c3ccc(Oc4ccc(N5C(=O)c6cccc(Oc7cc(C(C)(C)C)c(Oc8cccc9c8C(=O)N(*)C9=O)cc7C(C)(C)C)c6C5=O)cc4)cc3)cc2)cc1 (repeat unit),275.00 °C
21,*CCCC(=O)Nc1ccc(Oc2cccc(NC(=O)CCCN3C(=O)c4ccc(C(=O)c5ccc6c(c5)C(=O)N(*)C6=O)cc4C3=O)c2)cc1 (repeat unit),188.00 °C
22,*CC(O)COc1cccc(O*)c1 (repeat unit),65.00 °C
23,*NC1CCC(CC2CCC(NC(=O)CCCCC(*)=O)CC2)CC1 (repeat unit),185.00 °C
24,*CCCCCOc1cccc(C(=O)OC(=O)c2cccc(O*)c2)c1 (repeat unit),61.00 °C
